Experimental data published in the supplement of paper PMC10307832.

compound: CC1(C)CCC(CN2CCN(c3ccc(C(=O)NS(=O)(=O)c4ccc(NCC5CCOCC5)c([N+](=O)[O-])c4)c(Oc4cnc5[nH]ccc5c4)c3)CC2)=C(c2ccc(Cl)cc2)C1 [Venetoclax] + CCNC(=O)c1noc(-c2cc(C(C)C)c(O)cc2O)c1-c1ccc(CN2CCOCC2)cc1 [Luminespib] (partner 0.01 µM); assay: relative viability (nuclei count vs DMSO), 5 days (fraction); higher = more cells survive; conditions: first compound 0.3162 µM
Method in brief: (§1)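 Cells from lung cancer lines were seeded into 1536-well plates and, one day later, dosed by pin tool. Treatments were either a single drug or a fixed dose of an anchor drug with five library-drug doses (not always all listed) in √10 steps. After 5 days, nuclei were stained in a one-step fixation (final 0.05% Triton X-100, 1% formaldehyde, 1 ug/ml Hoechst) and counted on 4× images, and relative viability is the treated-to-vehicle nuclei ratio, as the median of duplicate plates.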

| Cell Line | relative viability |
| --- | --- |
| NCI-H2023 | 0.784 |
| EPLC-272H | 0.171 |
| LCLC-97TM1 | 0.727 |
| PC-3 [JPC-3] | 0.688 |
| LOU-NH91 | 0.336 |
| NCI-H647 | 0.123 |
| NCI-H23 | 0.228 |
| EMC-BAC-2 | 1.21 |
| NCI-H2126 | 0.961 |
| HCC-44 | 1.07 |
| NCI-H1734 | 0.204 |
| NCI-H650 | 0.954 |
| LK-2 | 0.157 |
| NCI-H2228 | 0.128 |
| NCI-H2342 | 0.765 |
| SK-MES-1 | 0.822 |
| HARA | 0.913 |
| COR-L23 | 0.71 |
| COR-L 105 | 0.712 |
| LC-2-ad | 1.01 |
| LXF-289 | 0.663 |
| ChaGo-K-1 | 0.628 |
| NCI-H2170 | 0.737 |
| NCI-H322M | 0.944 |
| SW 900 | 0.168 |
| NCI-H1792 | 0.374 |
| NCI-H1563 | 0.447 |

same assay, conditions: first compound 1 µM

| Cell Line | relative viability |
| --- | --- |
| NCI-H522 | 1.19 |
| NCI-H1623 | 0.464 |
| PC-14 | 0.154 |
| NCI-H1666 | 0.996 |
| NCI-H1755 | 0.55 |
| NCI-H2023 | 0.676 |
| EPLC-272H | 0.367 |
| LCLC-97TM1 | 0.771 |
| PC-3 [JPC-3] | 0.668 |
| LOU-NH91 | 0.326 |
| NCI-H647 | 0.151 |
| NCI-H23 | 0.22 |
| EMC-BAC-2 | 1.1 |
| NCI-H2126 | 0.87 |
| HCC-44 | 1 |
| NCI-H1734 | 0.224 |

| Cell Line | relative viability |
| --- | --- |
| NCI-H650 | 0.735 |
| LK-2 | 0.182 |
| NCI-H2228 | 0.147 |
| NCI-H2342 | 0.719 |
| SK-MES-1 | 0.728 |
| HARA | 0.823 |
| COR-L23 | 0.651 |
| COR-L 105 | 0.625 |
| LC-2-ad | 0.898 |
| LXF-289 | 0.472 |
| ChaGo-K-1 | 0.59 |
| NCI-H2170 | 0.689 |
| NCI-H322M | 0.941 |
| SW 900 | 0.182 |
| NCI-H1792 | 0.375 |
| NCI-H1563 | 0.577 |

compound: CC1(C)CCC(CN2CCN(c3ccc(C(=O)NS(=O)(=O)c4ccc(NCC5CCOCC5)c([N+](=O)[O-])c4)c(Oc4cnc5[nH]ccc5c4)c3)CC2)=C(c2ccc(Cl)cc2)C1 [Venetoclax] + Cc1nc(Nc2ncc(C(=O)Nc3c(C)cccc3Cl)s2)cc(N2CCN(CCO)CC2)n1 [Dasatinib] (partner 0.075 µM); assay: as above; conditions: first compound 0.01 µM
Method in brief: as §1

| Cell Line | relative viability |
| --- | --- |
| NCI-H522 | 0.938 |
| NCI-H1623 | 0.565 |
| PC-14 | 0.337 |
| NCI-H1666 | 0.816 |
| NCI-H1755 | 0.398 |
| NCI-H2023 | 0.697 |
| EPLC-272H | 0.399 |
| LCLC-97TM1 | 0.856 |
| PC-3 [JPC-3] | 0.863 |
| LOU-NH91 | 0.511 |
| NCI-H647 | 0.16 |
| NCI-H23 | 0.664 |
| EMC-BAC-2 | 0.331 |
| NCI-H2126 | 0.568 |
| NCI-H1734 | 0.471 |
| NCI-H650 | 0.488 |
| LK-2 | 0.403 |
| NCI-H2228 | 0.555 |
| NCI-H2342 | 0.436 |
